Neuronal differentiation-inducing activity data for four sequences are collected here from US20120035112A1, “NEURONAL DIFFERENTIATION-INDUCING PEPTIDE AND USE THEREOF” (Toagosei Co., Ltd., priority 2009, published 2012).

In the experiment the test system is mouse neuronal stem cells. The experiment is described as follows: Evaluation of neuronal differentiation-inducing activities of synthesized peptides (β3-tubulin fluorescence antibody method, DAPI nuclear stain). It is filed as cell-based. The following applies: peptide 0.5 μM, 7 days culture in mouse neuronal stem cell growth medium; compared with positive control (differentiation medium, FIG. 16). As for the experimental part:
The neuronal differentiation-inducing activities of the synthesized peptides obtained in Example 1 (Samples 1 to 15) were examined.
That is, the sample peptide was added to a culture broth of neuronal stem cells collected from a mouse (mouse neuronal stem cell growth medium, a product of Cell Applications), and incubated. Addition was carried out to a concentration of 0.5 μM for each peptide.
Next, once 7 days had elapsed following peptide addition, each of the cultured cells was nuclear stained with DAPI (4′,6-diamidino-2-phenylindole) and examined with a fluorescence microscope. In addition, evaluation with a neuronal differentiation induction marker was carried out on the same samples. That is, using tubulin (specifically, β3-tubulin) as the marker for identifying neurons (nerve cells), the presence of tubulin (i.e., the presence or absence of neurons) within the culture solution was checked by a fluorescence antibody method using a fluorochrome-labeled anti-tubulin antibody for tubulin identification. The number of each figure corresponds to the number of the sample peptide used.
Each of these figures is a fluorescence micrograph (image) obtained by examining the state of neuronal differentiation by mouse neuronal stem cells following addition of the respective sample peptides and 7 days of culturing. The image was prepared by merging a DIC image, a DAPI nuclear stain image, and a fluorescence image showing the results of an investigation by an immune antibody method using fluorochrome-labeled anti-tubulin antibody.
As a positive control, mouse neuronal stem cells were cultured in a mouse neuronal stem cell differentiation medium (product of Cell Applications) without adding any of the peptides. When 7 days had elapsed following the start of culturing, treatment and fluorescence microscopic examination were carried out in the same way as described above.
As a negative control, mouse neuronal stem cells were cultured in a mouse neuronal stem cell […] (product of Cell Applications) without adding any of the peptides. When 7 days had elapsed following the start of culturing, treatment and fluorescence microscopic examination were carried out in the same way as described above.
For the sequence ALLLLAAWTVRAGKKRTLRKNDRKKR [Sample 7], the neuronal differentiation-inducing activity entry is reported as “particularly high neuronal differentiation-inducing activities”.

On to LLLLAAWTARAGKKRTLRKNDRKKR [Sample 2], for which the neuronal differentiation-inducing activity entry is given as “particularly high neuronal differentiation-inducing activities”.

For the sequence LLLLAAWTVRAGKKRTLRKNDRKKR [Sample 8], the neuronal differentiation-inducing activity entry was “particularly high neuronal differentiation-inducing activities”.

LALLLLAAWTVRAGKKRTLRKNDRKKR [Sample 6]: the neuronal differentiation-inducing activity entry is reported as “particularly high neuronal differentiation-inducing activities”.
